From patent US20110275517A1, “SYNERGISTIC HERBICIDAL COMPOSITION CONTAINING A DICAMBA DERIVATIVE AND A […]” (DOW AGROSCIENCES LLC, priority 2010, published 2011) come the findings set out here.

Common to all, as to assay type: in vivo
Holding throughout (settings): rated after 14-21 d

Test [1] deals with ERICA GLY-RES (Glyphosate-resistant Conyza canadensis). In words: Greenhouse postemergence foliar herbicidal test on ERICA GLY-RES. The procedure: (§1) Seeds of the desired test plant species were planted in Sun Gro MetroMix 306 planting mixture, which typically has a pH of 6.0 to 6.8 and an organic matter content of about 30 percent, in plastic pots with a surface area of 103.2 square centimeters (cm^2). […] The plants were grown for 7-36 days (d) in a greenhouse with an approximate 16 hour (h) photoperiod which was maintained at about 28° C. during the day and 26° C. during the night. Nutrients and water were added on a regular basis and supplemental lighting was provided with overhead metal halide 1000-Watt lamps as necessary. The plants were employed for testing when they reached the second or third true leaf stage.
(§2) Treatments consisted of Banvel™ (dicamba dimethylamine salt) and Durango™ herbicide (glyphosate dimethylamine salt) alone and in combinations. An aliquot of
(§3) Banvel^TM (dicamba dimethylamine salt) was placed in 25 milliliter (mL) glass vials and diluted in a volume of water to obtain 1.5 milligrams (mg) active ingredient (ai)/mL concentrated solutions. Subsequent concentrations of Banvel™ (dicamba dimethylamine salt) were obtained by dilution with an equal volume of water. Spray solutions of Durango™ herbicide (glyphosate dimethylamine salt) were prepared following the aforementioned procedure. An aliquot of Durango™ herbicide (glyphosate dimethylamine salt) was placed in 25 milliter (mL) glass vials and mixed in a volume of 100:2 w/w water/ammonium sulfate (AMS) dilution solution to obtain 1.5 milligrams (mg) active ingredient (ai)/mL concentrated solutions.
(§4) Compound requirements are based upon a 12 mL application volume at a rate of 187 liters per hectare (L/ha). Spray solutions of the Banvel^TM (dicamba dimethylamine salt) and Durango™ herbicide (glyphosate dimethylamine salt) were prepared by adding the concentrated solutions to the appropriate amount of dilution solution to form 12 mL spray solution with active ingredients in combination. Banvel™ (dicamba dimethylamine salt) and Durango™ herbicide (glyphosate dimethylamine salt) alone and in combinations were applied to the foliage of plant material with an overhead Mandel track sprayer equipped with 8002E nozzles calibrated to deliver 187 L/ha over an application area of 0.503 square meters (m^2) at a spray height of 18 inches (43 cm) above average plant canopy. Control plants were sprayed in the same manner with the solvent blank.
(§5) The treated plants and control plants were placed in a greenhouse as described above and watered by sub-irrigation to prevent wash-off of the test compounds. After 14-21 d, the condition of the test plants as compared with that of the control plants was determined visually and scored on a scale of 0 to 100 percent where 0 corresponds to no injury and 100 corresponds to complete kill.
(§6) Colby's equation was used to determine the herbicidal effects expected from the mixtures (Colby, S. R. 1967. Calculation of the synergistic and antagonistic response of herbicide combinations. Weeds 15:20-22.).
(§7) The following equation was used to calculate the expected activity of mixtures containing two active ingredients, A and B:
(§8) A=observed efficacy of active ingredient A at the same concentration as used in the mixture;
(§9) B=observed efficacy of active ingredient B at the same concentration as used in the mixture.

Test [2] deals with ERICA = Conyza canadensis (horseweed/marestail). In words: Greenhouse postemergence foliar herbicidal test on ERICA. The procedure:
as §1, §2, §3, §4, §5, §6, §7, §8, §9

Test [3] concerns COMBE = Commelina benghalensis (Dayflower). As to the kind of experiment: Greenhouse postemergence foliar herbicidal test on COMBE. The procedure: as §1, §2, §3, §4, §5, §6, §7, §8, §9
Test [4] concerns CHEAL GLY-RES (Glyphosate-resistant Chenopodium album). As to the kind of experiment: Greenhouse postemergence foliar herbicidal test on CHEAL GLY-RES. The procedure: as §1, §2, §3, §4, §5, §6, §7, §8, §9
Test [5] deals with CHEAL = Chenopodium album (Common lambsquarters/fat hen). In words: Greenhouse postemergence foliar herbicidal test on CHEAL. The procedure:
as §1, §2, §3, §4, §5, §6, §7, §8, §9

The structures appear in SMILES notation.

Regarding `COc1c(Cl)ccc(Cl)c1C(=O)O` [Dicamba, 3,6-dichloro-2-methoxybenzoic acid], the “Herbicidal effect, observed (Ob), visual injury 0-100” value (“Herbicidal effect, observed (Ob)” for short) was 62% in test [1] (applied alone at 35 g/ha); 83% in test [1] (applied alone at 70 g/ha); 95% in test [1] (applied alone at 140 g/ha); 97% in test [1] (applied alone at 280 g/ha); 62% in test [2] (applied alone at 35 g/ha); 81% in test [2] (applied alone at 70 g/ha). The “Herbicidal effect, observed (Ob)” value in test [2] (applied alone at 140 g/ha) amounted to 93%; in test [2] (applied alone at 280 g/ha), 97%; in test [3] (applied alone at 35 g/ha) it was 18%; in test [3] (applied alone at 70 g/ha), 25%; in test [3] (applied alone at 140 g/ha) it was 43%; in test [3] (applied alone at 280 g/ha) it was 42%. Besides, the “Herbicidal effect, observed (Ob)” value in test [4] (applied alone at 35 g/ha) was 33%; in test [4] (applied alone at 70 g/ha), 48%; in test [4] (applied alone at 140 g/ha) it was 64%; in test [4] (applied alone at 280 g/ha), 83%; in test [5] (applied alone at 35 g/ha), 34%; in test [5] (applied alone at 70 g/ha), 40%. For the same compound, the “Herbicidal effect, observed (Ob)” value in test [5] (applied alone at 140 g/ha) came out at 52%; in test [5] (applied alone at 280 g/ha), 61%.

For the compound `O=C(O)CNCP(=O)(O)O` [Glyphosate + AMS, N-(phosphonomethyl)glycine], the “Herbicidal effect, observed (Ob)” value in test [1] (applied alone at 35 g/ha) was 0%; in test [1] (applied alone at 70 g/ha), 0%; in test [1] (applied alone at 140 g/ha) it was 3%; in test [1] (applied alone at 280 g/ha), 7%; in test [2] (applied alone at 35 g/ha), 47%; in test [2] (applied alone at 70 g/ha) it was 55%. In addition, the “Herbicidal effect, observed (Ob)” value was determined as 72% in test [2] (applied alone at 140 g/ha); 78% in test [2] (applied alone at 280 g/ha); 7% in test [3] (applied alone at 35 g/ha); 27% in test [3] (applied alone at 70 g/ha); 49% in test [3] (applied alone at 140 g/ha); 58% in test [3] (applied alone at 280 g/ha). In addition, the “Herbicidal effect, observed (Ob)” value in test [4] (applied alone at 35 g/ha) is 9%; in test [4] (applied alone at 70 g/ha), 9%; in test [4] (applied alone at 140 g/ha), 41%; in test [4] (applied alone at 280 g/ha), 51%; in test [5] (applied alone at 35 g/ha) it was 8%; in test [5] (applied alone at 70 g/ha), 12%. In addition, the “Herbicidal effect, observed (Ob)” value in test [5] (applied alone at 140 g/ha) worked out at 57%; in test [5] (applied alone at 280 g/ha), 66%.
